Entries after “also recorded” stand apart in the source; their conditions may differ.

Assay [1] is described as follows: Fluorescence titration of cadmium ions in cuvettes. The settings on record: 50 mM MOPS pH 7, metal titrated up to 100 μM. Type of assay: binding. The protocol:
A dye stock (709 μM) solution of Compound 10 was prepared in DMSO. Lead, cadmium and mercury solutions from 0-100 μM were prepared in disposable cuvettes by diluting a 100 μM metal stock solutions to a final volume of 2 mL with 50 mM MOPS (pH7). The 100 μM metal stocks were also in 50 mM MOPS (pH7). For the cadmium titration, dye stock was added to give a final concentration of 0.35 μM. For the lead and mercury titrations, dye stock was added to give a final concentration of 1.42 μM. Samples were excited at 492 nm and fluorescence was recorded at 517 nm. […] See, FIG. 2.
The experiment was performed as described above except that the exact dye concentrations were unknown. Sample was dissolved in DMSO and diluted 2× in nano-pure H2O before running. Ex./Em. 549/577 nm. […] See, FIG. 1.
The experiment was performed as described above for cadmium ion detection except that the exact dye concentrations were unknown. Ex./Em. 348/397/481 nm (ratiometric).

The test system of assay [2] is intracellular Pb or Cd ions in 3T3 cells. As to the kind of experiment: Compound 12 on 3T3 cells with PbCl2 or CdCl2, then TPEN chelation. In kind it is cell-based. The following applies: 400 nM Compound 12, 1 μM ionomycin. The method, then: 500 nM, 250 nM and 125 nM of PbCl2 and at concentration range 100 uM, 50 μM and 25 μM of CdCl2.
After fluorescence acquisition, TPEN, a cell-permeant heavy metal chelator, was added to the samples.

By Kd is commonly meant the constant that tells how readily two partners part at equilibrium. In turn, `O=C(O)COc1ccccc1OCCOc1cc(-c2cc3ccc(C(=O)O)cc3[nH]2)ccc1N(CC(=O)O)CC(=O)O` [Compound 18] came in with a Kd in assay [1] of 1.2 µM. Consider `c1ccc(CN(CCN(Cc2ccccn2)Cc2ccccn2)Cc2ccccn2)nc1` [TPEN, tetrakis-(2-pyridylmethyl)ethylenediamine], for which, in assay [2], the “Change of Compound 12 fluorescence after addition of the chelator” value is recorded as “drop of fluorescence after TPEN addition; also recorded: drop in fluorescence from the viable cells”.

For the origin of these results see patent US8680320B2, “Heavy metal binding compounds and their method of use” (Life Technologies Corporation, priority 2006, dated 2014).
